Source: publication PMC6630517 (Molecules, 2019)
Where two headings read alike, the source gives them in different places.

Key:
blood stage = conditions: cited from earlier work
[1] = system: chloroquine-sensitive (CQS) NF54 strain of Plasmodium falciparum; assay: In vitro antiplasmodial assay (parasite lactate dehydrogenase), NF54 strain; assay type: cell-based; conditions: for activity in the sensitive strain (in words): NF54 strain
Method: (§1) Continuous in vitro cultures of asexual erythrocyte stages of P. falciparum were maintained using a modified method by Trager and Jensen. Quantitative assessment of the antiplasmodial activity in vitro was determined via the parasite lactate dehydrogenase assay using a modified method described by Makler. […] Samples were tested as a suspension if not completely dissolved. Stock solutions were stored at −20 °C. Further dilutions were prepared on the day of the experiment. […] The vitamin B12 complexes were tested at starting concentrations up to 50 μg/ mL, which was then serially diluted 2-fold in complete medium to give 10 concentrations. The ligands were tested at a starting concentration of 10 μg/mL, which was serially diluted 2-fold in complete medium to give 10 concentrations. […] The IC50 values were obtained using a non-linear dose-response curve fitting analysis via Graph Pad Prism v.5.0 software (GraphPad Software Inc., San Diego, CA, USA).

[2] = system: chloroquine-resistant (CQR) K1 strain of Plasmodium falciparum; assay: In vitro antiplasmodial assay (parasite lactate dehydrogenase), K1 strain; assay type: cell-based; conditions: for Resistance Index (RI): RI = IC50 (CQR)/IC50 (CQS); for activity against the CQR K1 strain relative to CQS (in words): resistance indices very close to unity
Method: as §1

[3] = system: Tg(fabp10:EGFP) zebrafish embryos; assay: Zebrafish bio-distribution, transgenic Tg(fabp10:EGFP) embryos; assay type: in vivo, Danio rerio
Method: (§2) Because liver toxicity presents one of the most common drawbacks of the drugs approved for the human use, the drugs synthesized in this study were examined for the possible hepatotoxicity in vivo. The transgenic Tg(fabp:EGFP) zebrafish embryos exposed at 72 hpf (a stage when the liver is becoming vascularized and performing metabolic transformation of the absorbed compounds) to the synthesized drugs were evaluated for the liver colour (a possible necrosis sign), size, fluorescence and the liver area index ([…]). These are all parameters commonly used for hepatotoxicity evaluation and to follow the effect of applied therapies on the liver function.
To verify a preferential accumulation of B12-JR1-CBC in the liver, the compound was applied intravenously (parenteral use) to zebrafish embryos.

[4] = system: liver of Tg(fabp10:EGFP) zebrafish embryos; assay: Zebrafish hepatotoxicity, transgenic Tg(fabp10:EGFP) embryos; assay type: in vivo, Danio rerio; conditions: 150 µM
Method: as §2
Dead embryos were counted and discarded every 24 h.

[5] = system: Chinese Hamster Ovarian (CHO) cell-line; assay type: cell-based
Method: (§3) B12-JR1 was screened for in vitro cytotoxicity against the Chinese Hamster Ovarian (CHO) cell-line using the 3-(4,5-dimethylthiazol-2-yl)-2,5-diphenyltetrazolium bromide (MTT)-assay. The test sample was prepared to a 20 mg mL^−1 stock solution in 100% DMSO and tested in triplicate. Stock solutions were stored at −20 °C. Further dilutions were prepared in complete medium on the day of the experiment. Samples were tested as a suspension if not completely dissolved. Emetine was used as the reference drug in all experiments. The initial concentration of emetine was 100 µg mL^−1, which was diluted in complete medium with 10-fold dilutions to give 6 concentrations, the lowest being 0.001 µg mL^−1. The same dilution technique was applied to all test samples. The highest concentration of solvent to which the cells were exposed to have no measurable effect on the cell viability. […] Furthermore, the cytotoxicity in terms of the antiproliferative effect of B12-JR1, B12-JR2 and B12-JR3 were similarly evaluated by the MTT assay. The assay was carried out using human lung fibroblasts (MRC5) cell line after 48 h of cell incubation in the medium, containing compounds at concentrations ranging from 5 to 200 μM. […] The results were expressed as mean values ± standard deviation (SD) and analysed using Student’s t-test at a threshold level of p = 0.05. […]

[6] = system: zebrafish (Danio rerio) embryos; assay: Zebrafish embryo toxicity (lethal, developmental, cardiotoxicity); conditions: 6 to 120 hpf; for toxicity in zebrafish embryos (survival/teratogenicity, in words): doses up to 150 µM
Method: The toxicity evaluation of B12-JR1, B12-JR1-CBC and vitamin B12 in the zebrafish model was carried out according to general rules of the OECD Guidelines for the Testing of Chemicals. […] Embryos of wild type zebrafish (Danio rerio, AB strain) were raised in a temperature- and light-controlled zebrafish facility with 28 °C and standard 14:10-h light-dark photoperiod, and regularly fed with commercially dry flake food (TetraMin™ flakes; Tetra Melle, Germany) twice a day and Artemia nauplii once daily. Zebrafish embryos were produced by the pair-wise mating, collected and distributed into 24-well plates containing 10 embryos per well and 1 mL embryos water (0.2 g L^−1 of Instant Ocean® Salt in distilled water), and raised at 28 °C. […] Experiments were performed three times using 30 embryos per concentration. Apical endpoints for the toxicity evaluation (Table S1) were recorded at 24, 48, 72, 96 and 120 hpf using an inverted microscope (CKX41; Olympus, Tokyo, Japan). […] Experiments were performed three times using 5 embryos per concentration. The hepatotoxicity was determined according to the change of liver area index compared to the control group, calculated as the ration between liver area and embryonic lateral area x 100%, as reported by Zhang et al.. In addition, the liver colour and retention of yolk were followed as the phenotypic signs of hepatotoxicity.

[7] = system: human lung fibroblasts (MRC5) cell line; assay: In vitro cytotoxicity, MTT assay, MRC5; assay type: cell-based; conditions: 48 h, 5 to 200 μM, read-out: IC50 against MRC5
Method: as §3

[8] = Plasmodium falciparum, CQS NF54 strain, asexual erythrocyte stages, triplicate, na = not active at the tested concentration, read-out: NF54 IC50 ± SD
[9] = Plasmodium falciparum, CQR K1 strain, asexual erythrocyte stages, triplicate, read-out: K1 IC50 ± SD
[10] = CQS NF54 strain, asexual erythrocyte stages, triplicate, na = not active at the tested concentration, read-out: NF54 IC50 ± SD
[11] = CQR K1 strain, asexual erythrocyte stages, triplicate, read-out: K1 IC50 ± SD

Compound: C/C1=C2/[N-][C@H]([C@H](CC(N)=O)[C@@]2(C)CCC(=O)NC[C@@H](C)OP(=O)([O-])O[C@H]2[C@@H](O)[C@@H](n3cnc4cc(C)c(C)cc43)O[C@@H]2CO)[C@]2(C)N=C(/C(C)=C3N=C(/C=C4N=C1[C@@H](CCC(N)=O)C\4(C)C)[C@@H](CCC(N)=O)[C@]\3(C)CC(N)=O)[C@@H](CCC(N)=O)[C@]2(C)CC(N)=O.[CH2-][C@H]1O[C@@H](n2cnc3c(N)ncnc32)[C@H](O)[C@@H]1O.[Co] [Ado-Cbl, adenosylcobalamin]
- rank of antimalarial activity among naturally occurring Cbls (in words) (blood stage): most active

Compound: CCN(CC)CCCC(C)Nc1ccnc2cc(Cl)ccc12 (centres unmarked) [CQ, chloroquine, reference compound]
- IC50 ([1]; Plasmodium falciparum, NF54, Erythrocyte, read-out: NF54 IC50 ± SD): 0.013 ± 0.001 µM
- IC50 ([2]; Plasmodium falciparum, K1, Erythrocyte, read-out: K1 IC50 ± SD): 0.4 ± 0.04 µM

Compound: C#Cc1ccc(-c2cn(CCNc3ccnc4cc(Cl)ccc34)nn2)cc1 [JR1, 7-chloro-N-(2-(4-(4-ethynylphenyl)-1H-1,2,3-triazol-1-yl)ethyl)quinolin-4-amine]
- activity in the sensitive strain (in words) [1]: good activity
- IC50 [1, 8]: 0.14 ± 0.01 µM
- IC50 [2, 9]: 0.18 ± 0.02 µM
- Resistance Index (RI) [2]: 1.3

Compound: C#Cc1ccc(-c2cn(CCNc3ccnc4cc(Cl)ccc34)nn2)cc1F [JR2, 7-chloro-N-(2-(4-(4-ethynyl-3-fluorophenyl)-1H-1,2,3-triazol-1-yl)ethyl)quinolin-4-amine]
- activity in the sensitive strain (in words) [1]: good activity
- IC50 [1, 8]: 0.15 ± 0.01 µM
- IC50 [2, 9]: 0.16 ± 0.01 µM
- Resistance Index (RI) [2]: 1.1

Compound: C#Cc1ccc(-c2cn(CCNc3ccnc4cc(Cl)ccc34)nn2)c(F)c1 [JR3, 7-chloro-N-(2-(4-(4-ethynyl-2-fluorophenyl)-1H-1,2,3-triazol-1-yl)ethyl)quinolin-4-amine]
- activity in the sensitive strain (in words) [1]: good activity
- IC50 [1, 8]: 0.19 ± 0.02 µM
- IC50 [2, 9]: 0.21 ± 0.02 µM
- Resistance Index (RI) [2]: 1.1

Compound: C#Cc1ccc(-c2cn(CC(=O)N3CCn4c(nc(-c5ccc(F)cc5)c4Nc4ccc(F)cc4)C3(C)C)nn2)cc1 [SN1, 2-(4-(4-ethynylphenyl)-1H-1,2,3-triazol-1-yl)-1-(2-(4-fluorophenyl)-3-((4-fluorophenyl)amino)-8,8-dimethyl-5,6-dihydroimidazo[1,2-a]pyrazin-7(8H)-yl)ethan-1-one]
- activity in the sensitive strain (in words) [1]: inactive

Compound: Cobalamin-2-(4-(4-ethynylphenyl)-1H-1,2,3-triazol-1-yl)-1-(2-(4-fluorophenyl)-3-((4-fluorophenyl)amino)-8,8-dimethyl-5,6-dihydroimidazo[1,2-a]pyrazin-7(8H)-yl)ethan-1-one [Compound B12-SN1]
- activity in the sensitive strain (in words) [1]: inactive

Compound: cobalamin-7-chloro-N-(2-(4-(4-ethynyl-2-fluorophenyl)-1H-1,2,3-triazol-1-yl)ethyl)quinolin-4-amine [Compound B12-JR3]
- IC50 [1, 10]: 9.68 ± 0.73 µM
- IC50 [2, 11]: > 15 µM
- Resistance Index (RI) [2]: >1.6

Compound: cobalamin-7-chloro-N-(2-(4-(4-ethynyl-3-fluorophenyl)-1H-1,2,3-triazol-1-yl)ethyl)quinolin-4-amine [Compound B12-JR2]
- IC50 [1, 10]: 4.73 ± 0.32 µM
- IC50 [2, 11]: 6.02 ± 0.71 µM
- Resistance Index (RI) [2]: 1.3
- activity against the CQR K1 strain relative to CQS (in words) [2]: equally active

Compound: cobalamin-7-chloro-N-(2-(4-(4-ethynylphenyl)-1H-1,2,3-triazol-1-yl)ethyl)quinolin-4-amine [Compound B12-JR1]
- organ distribution when applied in the embryo water (in words) ([3]; 150 µM, 106–120 hpf): preferential accumulation of both compounds in the liver
- effect on liver development (in words) ([3]; after the exposure period, 150 µM of B12-JR1 and 20 µM B12-JR1-CBC): did not affect the liver development
- organ distribution after microinjection into the blood circulation (in words) ([3]; parenteral, microinjected at 106 hpf, analysed at 120 hpf): solely detected in the liver
- liver area index (in words) ([4]; exposure 72–120 hpf): did not affect the liver area index
- liver size and fluorescence (in words) ([4]; exposure 72–120 hpf): no changes in the liver size and fluorescence
- hepatotoxicity (in words) ([4]; dose 16–24 higher than the one active against Plasmodium strains): not hepatotoxic
- IC50 [1, 10]: 6.27 ± 0.37 µM
- IC50 ([1]; Table 2, in vitro data obtained in the cell-based assay, read-out: IC50 NF54): 6.3 µM
- toxicity against CHO cells (in words) [5]: not to be toxic
- toxicity in zebrafish embryos (survival/teratogenicity, in words) [6]: neither toxic
- LC50 ([6]; zebrafish model): > 150 µM
- IC50 [7]: 70 µM
- IC50 [2, 11]: 9.18 ± 0.85 µM
- Resistance Index (RI) [2]: 1.5
- IC50 ([2]; Table 2, in vitro data obtained in the cell-based assay, read-out: IC50 K1): 9.2 µM
- activity against the CQR K1 strain relative to CQS (in words) [2]: equally active

Compound: cyanocobalamin [vitamin B12, reference compound]
- toxicity in zebrafish embryos (survival/teratogenicity, in words) [6]: neither toxic
